In patent US20220079962A1, “NUTRITIONAL COMPOSITION COMPRISING 2'FUCOSYLLACTOSE AND DIETARY BUTYRATE” (N.V. Nutricia, priority 2019, published 2022):

Columns and labels:
[1] = system: human peripheral blood mononuclear cells (PBMC); test: PBMC cytokine levels, CD3/CD28 stimulated condition; assay type: cell-based; details: for Relative level of CCL17, observed / Relative level of IL-4, observed / Relative level of IL-13, observed: blanc = 1, 0.2 wt % 2′-FL, 0.1 wt % 3′-GL, mean
Procedure: Isolation of PBMC from healthy donors: Human peripheral blood mononuclear cells (PBMC) from healthy donors were isolated from buffy coats (Sanquin, Amsterdam, the Netherlands). PBMC were obtained by centrifugation using Leucosep tubes (Greiner Bio-One). PBMC were collected and washed in PBS (Gibco, Thermo Fisher Technologies)+2% heat-inactivated FCS (Invitrogen), followed by hypotonic lysis of erythrocytes with sterile lysis buffer (0.15 M NH4Cl, 0.01 M KHCO3 and 0.1 mM EDTA, pH of 7.4 at 4° C., all from Merck, Darmstadt, Germany). After lysis, the PBMC were resuspended in freezing medium (70% RPMI 1640 medium (Gibco, Thermo Fisher Technologies) supplemented with 10% heat-inactivated FCS and 100 U/ml penicillin-streptomycin, 20% heat-inactivated FCS and 10% DMSO (Sigma)) and cryopreserved.
PBMC activation model: PBMC (0.2.10^6 cell/well) were cultured in 96-well flat bottom plates (Corning). For 24 hours the cells were pre-incubated with 2′-FL (Jennewein), 3′-GL (0-0.3% w/v; Carbosynth) or sodium butyrate (0.2 mM; Sigma Aldrich) and combinations thereof. Subsequently, the cells were CD3/CD28-activated (Pelicluster CD3 and Pelicluster CD28, Sanquin) for an additional 24 hours. After incubation, IFNγ was measured by ELISA in the supernatants (see below). To determine cell activity after stimulation, PBMC were incubated with cell proliferation reagent WST-1 (10 μl; Roche) and/or 10% Triton (5 μl; negative control). After 3 hours, absorbance was measured at OD450 nm and OD650 nm and cell activity was calculated according to manufacturer's instructions.
Cytokine production of PBMC: PBMC were incubated with indicated reagents. After incubation, the supernatants were collected and IL2, IL6, IL10, IL13, IL21, TNFα, IFNγ, MIF, CCL1, CCL13, CCL17, CCL20, CCL22 and CXCL8-11 levels were measured by conducting a validated multiplex immunoassay based on Luminex technology (xMAP, Luminex Austin Tex. USA). Acquisition was conducted with the Biorad FlexMAP3D (Biorad laboratories, Hercules USA) in combination with xPONENT software version 4.2 (Luminex). Data was analyzed by 5-parametric curve fitting using Bio-Plex Manager software, version 6.1.1 (Biorad).
After PBMC stimulation, cell culture supernatants were collected, after which cytokine responses were measured in order to test immune responsiveness of the cells. […] In addition, since each donor is reacting in its own efficiency onto the T cell stimulus, we calculated the individual index of cytokine response by dividing the intervention induced response by the basal stimulated response.
Subsequently, in order to test the direct effect of specific compounds on PBMC activity, the cells were activated with CD3/CD28 for 24 hours after a pre-incubated for 24 h with either 2′-FL, 3′-GL and combinations thereof. In addition, since each donor is reacting in its own efficiency onto the T cell stimulus, the individual index of cytokine response was calculated by dividing the intervention induced response by the basal stimulated response (the blanc is set at 1). In this way the intervention within 10 different donors has been studied.

[2] = system: Salmonella enteriditis S29; test: Fecal slurry fermentation spiked with pathogens, Salmonella growth
Procedure: (§1) In addition the test legs were supplemented with Clostridium difficile C153 (difficile agar), Salmonella enteriditis S29 (XLD agar), Cronobacter sakasakii E71 (chromogenic agar) or Klebsiella pneumonia K2 (Simons citrate inositol agar). For every NDO and for the control also a pathogen free culture was prepared.
(§2) The experiment was started, and pH setpoint was either 5.5 (facial inoculum from infant 1, vaginally born, breast fed) or pH 6.0 (Inoculum from infant 2, vaginally born, breast fed) with continuous pH regulation, and temperature 37° C., humidity 85%, OD control. At 4, 8 and 24 hours a sample is taken for CFU determination on TOS-propionate MUP agar (total Bifidobacteria), XLD agar for Salmonella enteriditis S29, and Simons citrate inositol agar for Klebsiella pneumonia K2 and for SCFA, D- and L Lactate and ammonia analysis. Fecal pellet was used for 16s DNA sequencing. For both inocula the extent of fermentation, as measured by NaOH consumption, i.e. acid production, was highest with the combination of 3′-GU2′-FL, when compared to 3′-GL or 2′-FL alone. The rate of initial acidification was high for 3′-GL and for 3′-GL/2′-FL. […] As the amount of carbohydrates that can be fermented is the same in the reaction vessels, the higher total acidification with the combination is indicative for an unexpected, synergistic effect of the combination of 2′-FL and 3′-GL. […]

[3] = system: infant intestinal microbiota; test: quad-SHIME model of infant intestinal microbiota (SCFA, glycoprofile); set-up: species or system human; Butyrate (Mean ± SD) / Iso-Butyrate (Mean ± SD) / Acetate (Mean ± SD): unit not given here; details: distal colon
Description: A faecal sample from a healthy infant born via C-section, exclusively breastfed with no history of antibiotic usage, was used as inoculum to simulate the infant intestinal microbiota in the colon compartments of a quad-SHIME®—a dynamic model of the human gastrointestinal tract comprises 4 SHIME® units running in parallel and each SHIME® unit is composed of 3 reactors simulating the stomach and small intestine, proximal and distal colons.

[4] = system: human peripheral blood mononuclear cells (PBMC); test: PBMC cell activity (WST-1); assay type: cell-based; details: after 24 h
Procedure: PBMC activation model: PBMC (0.2.10^6 cell/well) were cultured in 96-well flat bottom plates (Corning). For 24 hours the cells were pre-incubated with 2′-FL (Jennewein), 3′-GL (0-0.3% w/v; […] Sigma Aldrich) and combinations thereof. Subsequently, the cells were CD3/CD28-activated (Pelicluster CD3 and Pelicluster CD28, Sanquin) for an additional 24 hours. After incubation, IFNγ was measured by ELISA in the supernatants (see below). […] Roche) and/or 10% Triton (5 μl; negative control).

Klebsiella pneumonia K2 = test: Fecal slurry fermentation spiked with pathogens, Klebsiella growth; details: inoculum of baby 2
Procedure: as §1, §2

## C[C@@H]1O[C@@H](O[C@H]2[C@H](O[C@H]3[C@H](O)[C@@H](O)C(O)O[C@@H]3CO)O[C@H](CO)[C@H](O)[C@@H]2O)[C@@H](O)[C@H](O)[C@@H]1O (stereo partly drawn) [2′-FL, α-L-Fuc-(1→2)-β-D-Gal-(1→4)-D-Glc]
[1]
  CCL17 levels: no significant effect on CCL17 levels
  levels of IL-4 and IL-13 compared to control: had no effect on the levels of IL-4 and IL-13
  Relative level of CCL17, observed: 1.061
  Relative level of IL-4, observed: 0.9887
  Relative level of IL-13, observed: 1.039
[2]; inoculum of baby 1
  Salmonella growth: most restricted
[2]; inoculum of baby 2
  Salmonella growth: most restricted
[3]
  butyrate generation relative to the control and the scGOS/IcFOS groups: generated earlier in the distal colon and at a higher concentration
[3]; D 1-D 3
  Acetate (Mean ± SD): 38.67 ± 10.25
  Butyrate (Mean ± SD): 0 ± 0
  Iso-Butyrate (Mean ± SD): 0 ± 0
  Propionate (Mean ± SD): 10.17 ± 3.01
[3]; D 4-D 11
  Acetate (Mean ± SD): 26.22 ± 0.97
  Butyrate (Mean ± SD): 0.74 ± 0.49
  Iso-Butyrate (Mean ± SD): 0.68 ± 0.75
  Propionate (Mean ± SD): 6.58 ± 0.49
[3]; D 12-D 15
  Acetate (Mean ± SD): 22.96 ± 1.04
  Butyrate (Mean ± SD): 0.99 ± 0.09
  Iso-Butyrate (Mean ± SD): 0.93 ± 0.21
  Propionate (Mean ± SD): 6.13 ± 0.63
[4]
  Immune cell activity as measured by WST: significantly increased

## Gal (beta 1-3)-Gal (beta 1-4)-Glc [3′-GL]
[1]
  CCL17 levels: no significant effect on CCL17 levels
  levels of IL-4 and IL-13 compared to control: a decrease was detected
  Relative level of CCL17, observed: 0.6212
  Relative level of IL-4, observed: 0.5825
  Relative level of IL-13, observed: 0.5472
Klebsiella pneumonia K2
  Klebsiella growth: most inhibited
[4]
  Immune cell activity as measured by WST: decrease in activation
